This passage reports IC50 and EC50 results from US12590099B2, “Inhibitors of histone deacetylase useful for the treatment or prevention of HIV infection” (Merck Sharp & Dohme LLC, priority 2018, dated 2026).

In experiment [1] the target is T1, Recombinant human HDAC8 (Homo sapiens, UniProt Q9BY41).
T1 construct: purchased Enzo Life Sciences BML-SE145-0100
T1 sequence (Q9BY41 1-377): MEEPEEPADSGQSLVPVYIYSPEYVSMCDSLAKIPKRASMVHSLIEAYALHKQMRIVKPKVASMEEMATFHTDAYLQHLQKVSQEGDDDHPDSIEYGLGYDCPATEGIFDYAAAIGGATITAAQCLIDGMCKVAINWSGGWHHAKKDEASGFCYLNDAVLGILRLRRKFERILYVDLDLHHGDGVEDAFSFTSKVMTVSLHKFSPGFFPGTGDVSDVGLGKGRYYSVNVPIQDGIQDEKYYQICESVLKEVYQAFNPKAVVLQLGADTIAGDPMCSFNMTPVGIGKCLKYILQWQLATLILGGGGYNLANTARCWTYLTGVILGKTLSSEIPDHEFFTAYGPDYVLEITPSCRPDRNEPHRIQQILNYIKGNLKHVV
The experiment is described as follows: Human HDAC enzyme inhibitor Fluor-de-Lys assay, HDAC8. It counts as biochemical.

The target of experiment [2] is T2, Recombinant human HDAC2 (Homo sapiens, UniProt Q92769).
T2 construct: Full length human HDAC2-FLAG was expressed in baculovirus infected Sf9 cells; FLAG (C); made in house; host or cells: Sf9 (baculovirus)
Kind of experiment: Human HDAC enzyme inhibitor Fluor-de-Lys assay, HDAC2. It counts as biochemical. The method, boiled down: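 Fluor-de-Lys format at room temperature (23° C.): compounds titrated 10-point, 1:3, preincubated with HDAC before substrate addition. Developer with excess HDAC inhibitor ends the reaction, and trypsin-liberated AMC fluorescence is the read-out.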

The test system of experiment [3] is KARN cells (Jurkat 2C4). Kind of experiment: cells. It counts as cell-based. The settings on record: Homo sapiens, Jurkat. The method, boiled down: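 Luminescence (Steady-Glo, 10 min, room temperature) measured next day in KARN Jurkat 2C4 cells given compounds at up to 40 μM final with 0.4% DMSO. Percent activation normalised to DMSO (0%) and 2 μM SAHA (100%), fitted by 4-parameter curve.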

Experiment [4] concerns the target T3, Recombinant human HDAC1 (Homo sapiens, UniProt Q13547).
T3 construct: FLAG (C); made in house
Kind of experiment: Human HDAC enzyme inhibitor Fluor-de-Lys assay, HDAC1. It counts as biochemical. Put shortly:
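Fluor-de-Lys format at room temperature (23° C.): compounds titrated 10-point, 1:3, preincubated with HDAC before substrate addition; HDAC1 run at 0.3 nM enzyme with 20 μM BML-KI104. Developer with excess HDAC inhibitor ends the reaction, and trypsin-liberated AMC fluorescence is the read-out.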

The target in experiment [5] is T4, Recombinant human HDAC3/SMRT heterodimer (Homo sapiens, UniProt O15379).
T4 construct: FLAG (C); made in house
Kind of experiment: Human HDAC enzyme inhibitor Fluor-de-Lys assay, HDAC3/SMRT. It counts as biochemical.

[6] abbreviates: read-out: Karn EC50 (nM) 0.1% NHS, 0.1% normal human serum.
[7] abbreviates: read-out: Karn EC50 (nM) 5% NHS, 5% normal human serum.

SMILES strings stand for the structures. Where two headings read alike, the source gives them in different places.

One may read the IC50 as the midpoint of a concentration-inhibition curve. For orientation: EC50 means the concentration giving half of the maximal effect.

T3 sequence (Q13547 whole entry): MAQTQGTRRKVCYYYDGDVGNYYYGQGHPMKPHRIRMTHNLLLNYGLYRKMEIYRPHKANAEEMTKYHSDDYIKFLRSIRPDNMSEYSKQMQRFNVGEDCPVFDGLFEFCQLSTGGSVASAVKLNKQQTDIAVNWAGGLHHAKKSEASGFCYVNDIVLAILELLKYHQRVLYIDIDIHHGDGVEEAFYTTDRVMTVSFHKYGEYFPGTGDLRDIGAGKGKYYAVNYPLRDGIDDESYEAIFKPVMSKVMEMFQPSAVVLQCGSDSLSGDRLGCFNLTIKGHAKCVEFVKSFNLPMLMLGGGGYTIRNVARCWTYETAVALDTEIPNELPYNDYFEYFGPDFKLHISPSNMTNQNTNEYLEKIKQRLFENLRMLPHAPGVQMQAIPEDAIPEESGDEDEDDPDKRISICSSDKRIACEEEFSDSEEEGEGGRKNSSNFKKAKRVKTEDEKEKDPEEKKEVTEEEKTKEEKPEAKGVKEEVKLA
T4 sequence (O15379 whole entry): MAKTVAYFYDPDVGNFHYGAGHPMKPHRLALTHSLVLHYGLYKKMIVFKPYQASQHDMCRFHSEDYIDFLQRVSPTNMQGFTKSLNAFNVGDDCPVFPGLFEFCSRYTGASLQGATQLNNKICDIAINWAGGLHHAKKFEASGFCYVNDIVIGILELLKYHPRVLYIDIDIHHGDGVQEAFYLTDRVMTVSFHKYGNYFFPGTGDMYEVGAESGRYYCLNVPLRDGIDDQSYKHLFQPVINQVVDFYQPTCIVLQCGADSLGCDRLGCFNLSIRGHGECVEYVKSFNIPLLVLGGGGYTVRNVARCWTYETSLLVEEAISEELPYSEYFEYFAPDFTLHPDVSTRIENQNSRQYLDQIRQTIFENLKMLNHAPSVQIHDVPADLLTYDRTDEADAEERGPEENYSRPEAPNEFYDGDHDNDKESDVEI
T4 sequence (Q9Y618 1-899 partner limits assumed): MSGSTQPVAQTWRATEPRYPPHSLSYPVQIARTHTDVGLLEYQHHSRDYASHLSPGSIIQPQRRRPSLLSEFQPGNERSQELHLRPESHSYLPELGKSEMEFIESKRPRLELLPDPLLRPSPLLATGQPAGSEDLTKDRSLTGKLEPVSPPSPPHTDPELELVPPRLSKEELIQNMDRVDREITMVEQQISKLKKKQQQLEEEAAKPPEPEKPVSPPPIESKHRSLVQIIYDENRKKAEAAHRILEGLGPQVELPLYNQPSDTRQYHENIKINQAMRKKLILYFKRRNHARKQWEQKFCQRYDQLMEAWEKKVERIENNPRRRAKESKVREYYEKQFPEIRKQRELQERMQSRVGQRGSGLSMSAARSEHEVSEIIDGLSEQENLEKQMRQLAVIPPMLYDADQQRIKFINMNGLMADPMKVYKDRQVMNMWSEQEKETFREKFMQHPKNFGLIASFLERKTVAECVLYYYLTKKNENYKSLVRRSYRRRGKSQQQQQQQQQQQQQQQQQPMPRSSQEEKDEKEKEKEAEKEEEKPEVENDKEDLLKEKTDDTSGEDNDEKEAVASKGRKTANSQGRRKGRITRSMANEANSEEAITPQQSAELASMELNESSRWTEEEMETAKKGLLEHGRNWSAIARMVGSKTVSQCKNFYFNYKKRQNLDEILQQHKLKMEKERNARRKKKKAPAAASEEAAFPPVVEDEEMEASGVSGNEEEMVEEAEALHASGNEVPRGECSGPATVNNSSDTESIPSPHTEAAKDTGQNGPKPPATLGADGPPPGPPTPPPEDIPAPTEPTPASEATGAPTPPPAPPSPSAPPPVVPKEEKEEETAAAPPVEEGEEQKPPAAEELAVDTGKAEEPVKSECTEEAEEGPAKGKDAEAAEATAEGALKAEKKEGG
T2 sequence (Q92769 whole entry): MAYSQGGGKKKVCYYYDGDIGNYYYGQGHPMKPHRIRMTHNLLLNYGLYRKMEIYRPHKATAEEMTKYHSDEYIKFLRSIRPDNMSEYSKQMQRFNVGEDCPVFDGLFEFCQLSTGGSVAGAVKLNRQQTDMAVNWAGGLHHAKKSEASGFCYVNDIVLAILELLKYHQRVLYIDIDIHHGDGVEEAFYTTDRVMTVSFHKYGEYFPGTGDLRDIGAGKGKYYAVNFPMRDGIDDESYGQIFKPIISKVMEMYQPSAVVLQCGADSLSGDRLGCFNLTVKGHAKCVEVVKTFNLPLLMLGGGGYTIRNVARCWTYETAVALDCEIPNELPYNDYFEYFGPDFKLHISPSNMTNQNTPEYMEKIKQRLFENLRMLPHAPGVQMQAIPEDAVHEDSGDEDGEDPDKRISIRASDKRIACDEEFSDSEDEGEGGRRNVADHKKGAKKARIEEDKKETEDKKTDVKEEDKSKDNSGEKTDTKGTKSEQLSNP

For the compound `CCN1CCC2(CC1)C[C@@H]2C(=O)N[C@@H](CCCCCC(=O)CC1CC1)c1ncc(-c2cc3ccc(C)nc3cc2OC)o1` [Compound 167], the 50% inhibitory concentration (IC50) stood at 8.27 µM in experiment [1], 0.008 µM in experiment [2], 0.00097 µM in experiment [4] and 0.00112 µM in experiment [5]. In addition, the values for the EC50 in experiment [3] (setting [6]) and in experiment [3] (setting [7]) were 122 nM and 253 nM, respectively.
For the compound `CCC(=O)CCCCC[C@H](NC(=O)C1=NOC2(CCN(CC3CC3)CC2)C1)c1ncc(-c2cc3ccc(C)nc3cc2OC)[nH]1` [Compound 219], the IC50 was > 0.9 µM in experiment [1], 0.0018 µM in experiment [2], 0.0001 µM in experiment [4] and 0.00034 µM in experiment [5]. Also, the values for the EC50 in experiment [3] (setting [6]) and in experiment [3] (setting [7]) were 78 nM and 101 nM, respectively.
`CCC(=O)CCCCC[C@H](NC(=O)[C@H]1CC12CCN(CC1CC1)CC2)c1ncc(-c2ccc3nc(C4CC4)ccc3c2)o1` [Compound 115]: the IC50 in experiment [1] was 15.4 µM; in experiment [2], 0.002 µM; in experiment [4] it was < 0.0015 µM; in experiment [5] it was < 0.0015 µM. The EC50 was determined as 239 nM in experiment [3] (setting [6]) and 209 nM in experiment [3] (setting [7]).
Turning to `CCC(=O)CCCCC[C@H](NC(=O)[C@H]1CC12CCN(CC)CC2)c1ncc(-c2ccc3nc(C4CC4)ccc3c2)[nH]1` [Compound 101], the IC50 was 6.65 µM in experiment [1], < 0.0015 µM in experiment [2], < 0.0015 µM in experiment [4] and < 0.0015 µM in experiment [5]. Besides, the 50% effective concentration (EC50) in experiment [3] (setting [6]) was found to be 41 nM; in experiment [3] (setting [7]) it was 36 nM.
With `CCC(=O)CCCCC[C@H](NC(=O)C1=NOC2(CCN(CC)CC2)C1)c1ncc(-c2cc3ccc(C)nc3cc2OC)[nH]1` [Compound 207], the IC50 in experiment [1] amounted to 1.59 µM; in experiment [2] it was 0.0021 µM; in experiment [4], 0.00024 µM; in experiment [5], 0.00036 µM. In addition, the EC50 in experiment [3] (setting [6]) was determined as 55 nM; in experiment [3] (setting [7]), 58 nM.
As for `CCC(=O)CCCCC[C@H](NC(=O)C1=NOC2(CCN(C)CC2)C1)c1ncc(-c2ccc3nc(C4CC4)ccc3c2)o1` [Compound 135], the half-maximal inhibitory concentration (IC50) turned out to be 18.3 µM in experiment [1], 0.0435 µM in experiment [2], 0.0146 µM in experiment [4] and 0.011 µM in experiment [5]. The results for the EC50 in experiment [3] (setting [6]) and in experiment [3] (setting [7]) were 1120 nM and 1380 nM, respectively.
In the case of `CCC(=O)CCCCC[C@H](NC(=O)[C@H]1CC12CCN(C)CC2)c1ncc(-c2ccc3oc(=O)ccc3c2)[nH]1` [Compound 138], the 50% inhibitory concentration (IC50) is 10.1 µM in experiment [1], 0.0079 µM in experiment [2], 0.00132 µM in experiment [4] and 0.00162 µM in experiment [5]. For the same compound, the EC50 in experiment [3] (setting [6]) was found to be 210 nM; in experiment [3] (setting [7]), 223 nM.
Take `CCC(=O)CCCCC[C@H](NC(=O)[C@H]1CC12CCN(C)CC2)c1ncc(-c2cc(OC)ncc2F)o1` [Compound 220]: the IC50 in experiment [1] is > 0.9 µM; in experiment [2] it was 0.251 µM; in experiment [4], 0.0299 µM; in experiment [5] it was 0.0335 µM. Further, the EC50 in experiment [3] (setting [6]) was 3810 nM; in experiment [3] (setting [7]), 3930 nM.
